{"source": "patent US6514945B1", "about": "“Azalide antibiotic compositions” (Pfizer Inc., priority 2000, dated 2003)", "test": "Equilibration of azalide isomers I and II in heated aqueous acid, monitored by HPLC (Table 1)", "format": "physicochemical", "settings": "isomer I prior to equilibration, for comparison", "procedure": "The equilibrium ratio of isomers I and II (about 90%±4% to about 10%±4%, respectively) was consistent for all experiments. […] Without being bound by any theory, lower equilibration temperatures or lower pH values generally result in substantially longer equilibration times. Equilibration time can also depend on, inter alia, the concentration of starting material, and the type and concentration of the acid used. Isomer I at a concentration of up to about 300 mg per mL of composition was heated to a temperature of about 40° C. to about 80° C. in the presence of one or more acids at a concentration of about 0.2 mmol to about 1.0 mmol per mL of mixture and with a sufficient quantity of hydrochloric acid to achieve a pH of about 6.5 to about 7.5 for up to about 20 hours to produce an equilibrium mixture of isomers that is about […] pure. Equilibration kinetic parameters and impurity levels for equilibration of azalide isomers I and II were determined as a function of pH, equilibration temperature, type of acid, and isomer I concentration and are listed in Table 1. […]\nEquilibrium mixtures of isomers were prepared and assayed as follows. […] 100 mL of solution were prepared in each of experiments 25C-28C, 200 mL of solution were prepared in each of experiments 29C-30C, and equilibration was monitored from 0.5 mL aliquots removed from the solutions. […]"}
{"smiles": "CCCNC[C@]1(O)[C@H](C)O[C@@H](O[C@H]2[C@H](C)[C@@H](OC3O[C@H](C)C[C@H](N(C)C)[C@H]3O)C(C)(O)C[C@@H](C)CN[C@H](C)[C@@H](O)[C@](C)(O)[C@@H](CC)OC(=O)[C@@H]2C)C[C@@]1(C)OC", "note": "(single isomer, unassigned) [isomer I]", "values": [{"measurement": "% Equilibrium mixture of isomers", "result": 98.39, "unit": "%"}, {"measurement": "% Impurities", "result": 1.61, "unit": "%"}]}
